Test results reported in ChEMBL document CHEMBL4251634, “Synthesis and antimicrobial activity of pyrimidinyl 1,3,4-oxadiazoles, 1,3,4-thiadiazoles and 1,2,4-triazoles” (2018).
The source made the active and inactive calls. The calls are words filed in the database; no cut-off is given here.

How the values were obtained:
Assay type in all cases: functional
[1] = test system: Penicillium chrysogenum; assay: Antifungal activity against Penicillium chrysogenum after 48 hrs by turbidity-based broth dilution assay
[2] = test system: Penicillium chrysogenum; assay: Antifungal activity against Penicillium chrysogenum assessed as diameter of inhibition zone at 25 ug/well after 48 hrs by agar well diffusion method; details: for zone of inhibition at 25 µg/disc: read-out: DIZ
[3] = test system: Aspergillus niger; assay: Antifungal activity against Aspergillus niger assessed as diameter of inhibition zone at 100 ug/well after 48 hrs by agar well diffusion method; details: read-out: DIZ
[4] = test system: Aspergillus niger; assay: Antifungal activity against Aspergillus niger assessed as diameter of inhibition zone at 50 ug/well after 48 hrs by agar well diffusion method; details: read-out: DIZ
[5] = test system: Aspergillus niger; assay: Antifungal activity against Aspergillus niger assessed as diameter of inhibition zone at 25 ug/well after 48 hrs by agar well diffusion method; details: for zone of inhibition at 25 µg/disc: read-out: DIZ
[6] = test system: Aspergillus niger; assay: Antifungal activity against Aspergillus niger after 48 hrs by turbidity-based broth dilution assay
[7] = test system: Penicillium chrysogenum; assay: Antifungal activity against Penicillium chrysogenum assessed as diameter of inhibition zone at 100 ug/well after 48 hrs by agar well diffusion method; details: for zone of inhibition at 100 µg/disc: read-out: DIZ
[8] = test system: Penicillium chrysogenum; assay: Antifungal activity against Penicillium chrysogenum assessed as diameter of inhibition zone at 12.5 ug/well after 48 hrs by agar well diffusion method; details: for zone of inhibition at 12.5 µg/disc: read-out: DIZ
[9] = test system: Aspergillus niger; assay: Antifungal activity against Aspergillus niger assessed as diameter of inhibition zone at 12.5 ug/well after 48 hrs by agar well diffusion method; details: for zone of inhibition at 12.5 µg/disc: read-out: DIZ
[10] = test system: Penicillium chrysogenum; assay: Antifungal activity against Penicillium chrysogenum assessed as diameter of inhibition zone at 50 ug/well after 48 hrs by agar well diffusion method; details: for zone of inhibition at 50 µg/disc: read-out: DIZ
[11] = test system: Staphylococcus aureus; assay: Antibacterial activity against Staphylococcus aureus assessed as diameter of inhibition zone at 12.5 ug/well after 24 hrs by agar well diffusion method; details: for zone of inhibition at 12.5 µg/disc: read-out: DIZ
[12] = test system: Bacillus subtilis; assay: Antibacterial activity against Bacillus subtilis assessed as diameter of inhibition zone at 12.5 ug/well after 24 hrs by agar well diffusion method; details: for zone of inhibition at 12.5 µg/disc: read-out: DIZ
[13] = test system: Pseudomonas aeruginosa; assay: Antibacterial activity against Pseudomonas aeruginosa assessed as diameter of inhibition zone at 12.5 ug/well after 24 hrs by agar well diffusion method; details: for zone of inhibition at 12.5 µg/disc: read-out: DIZ
[14] = test system: Staphylococcus aureus; assay: Antibacterial activity against Staphylococcus aureus assessed as diameter of inhibition zone at 50 ug/well after 24 hrs by agar well diffusion method; details: for zone of inhibition at 50 µg/disc: read-out: DIZ
[15] = test system: Klebsiella pneumoniae; assay: Antibacterial activity against Klebsiella pneumoniae assessed as diameter of inhibition zone at 50 ug/well after 24 hrs by agar well diffusion method; details: for zone of inhibition at 50 µg/disc: read-out: DIZ
[16] = test system: Klebsiella pneumoniae; assay: Antibacterial activity against Klebsiella pneumoniae assessed as diameter of inhibition zone at 12.5 ug/well after 24 hrs by agar well diffusion method; details: for zone of inhibition at 12.5 µg/disc: read-out: DIZ
[17] = test system: Bacillus subtilis; assay: Antibacterial activity against Bacillus subtilis assessed as diameter of inhibition zone at 100 ug/well after 24 hrs by agar well diffusion method; details: for zone of inhibition at 100 µg/disc: read-out: DIZ
[18] = test system: Pseudomonas aeruginosa; assay: Antibacterial activity against Pseudomonas aeruginosa assessed as diameter of inhibition zone at 25 ug/well after 24 hrs by agar well diffusion method; details: for zone of inhibition at 25 µg/disc: read-out: DIZ
[19] = test system: Bacillus subtilis; assay: Antibacterial activity against Bacillus subtilis assessed as diameter of inhibition zone at 50 ug/well after 24 hrs by agar well diffusion method; details: for zone of inhibition at 50 µg/disc: read-out: DIZ
[20] = test system: Pseudomonas aeruginosa; assay: Antibacterial activity against Pseudomonas aeruginosa assessed as diameter of inhibition zone at 100 ug/well after 24 hrs by agar well diffusion method; details: for zone of inhibition at 100 µg/disc: read-out: DIZ
[21] = test system: Bacillus subtilis; assay: Antibacterial activity against Bacillus subtilis assessed as diameter of inhibition zone at 25 ug/well after 24 hrs by agar well diffusion method; details: for zone of inhibition at 25 µg/disc: read-out: DIZ
[22] = test system: Pseudomonas aeruginosa; assay: Antibacterial activity against Pseudomonas aeruginosa assessed as diameter of inhibition zone at 50 ug/well after 24 hrs by agar well diffusion method; details: for zone of inhibition at 50 µg/disc: read-out: DIZ
[23] = test system: Staphylococcus aureus; assay: Antibacterial activity against Staphylococcus aureus after 24 hrs by turbidity-based broth dilution assay
[24] = test system: Klebsiella pneumoniae; assay: Antibacterial activity against Klebsiella pneumoniae assessed as diameter of inhibition zone at 25 ug/well after 24 hrs by agar well diffusion method; details: for zone of inhibition at 25 µg/disc: read-out: DIZ
[25] = test system: Klebsiella pneumoniae; assay: Antibacterial activity against Klebsiella pneumoniae after 24 hrs by turbidity-based broth dilution assay
[26] = test system: Klebsiella pneumoniae; assay: Antibacterial activity against Klebsiella pneumoniae assessed as diameter of inhibition zone at 100 ug/well after 24 hrs by agar well diffusion method; details: for zone of inhibition at 100 µg/disc: read-out: DIZ
[27] = test system: Staphylococcus aureus; assay: Antibacterial activity against Staphylococcus aureus assessed as diameter of inhibition zone at 25 ug/well after 24 hrs by agar well diffusion method; details: for zone of inhibition at 25 µg/disc: read-out: DIZ
[28] = test system: Pseudomonas aeruginosa; assay: Antibacterial activity against Pseudomonas aeruginosa after 24 hrs by turbidity-based broth dilution assay
[29] = test system: Staphylococcus aureus; assay: Antibacterial activity against Staphylococcus aureus assessed as diameter of inhibition zone at 100 ug/well after 24 hrs by agar well diffusion method; details: for zone of inhibition at 100 µg/disc: read-out: DIZ
[30] = test system: Penicillium chrysogenum; assay: Fungicidal activity against Penicillium chrysogenum incubated for 48 hrs followed by regrowth on PDA plates for 48 hrs
[31] = test system: Pseudomonas aeruginosa; assay: Bactericidal activity against Pseudomonas aeruginosa incubated for 24 hrs followed by regrowth on sterile nutrient broth for 24 hrs
[32] = test system: Aspergillus niger; assay: Fungicidal activity against Aspergillus niger incubated for 48 hrs followed by regrowth on PDA plates for 48 hrs
[33] = test system: Klebsiella pneumoniae; assay: Bactericidal activity against Klebsiella pneumoniae incubated for 24 hrs followed by regrowth on sterile nutrient broth for 24 hrs
[34] = test system: Bacillus subtilis; assay: Bactericidal activity against Bacillus subtilis incubated for 24 hrs followed by regrowth on sterile nutrient broth for 24 hrs; design: unit not given here
[35] = test system: Staphylococcus aureus; assay: Bactericidal activity against Staphylococcus aureus incubated for 24 hrs followed by regrowth on sterile nutrient broth for 24 hrs
[36] = test system: Pseudomonas aeruginosa; assay: Ratio of MBC to MIC for Pseudomonas aeruginosa

CC(=O)N1CCN(c2ccc(OCC3COC(Cn4ccnc4)(c4ccc(Cl)cc4Cl)O3)cc2)CC1 (stereo not drawn) [KETOCONAZOLE]
MIC [1]: 12.5 µg | zone of inhibition at 25 µg/disc [2]: 36 mm | zone of inhibition at 100 µg/disc [3]: 37 mm | zone of inhibition at 50 µg/disc [4]: 34 mm | zone of inhibition at 25 µg/disc [5]: 31 mm | MIC [6]: 6.25 µg | zone of inhibition at 100 µg/disc [7]: 39 mm | zone of inhibition at 12.5 µg/disc [8]: 34 mm | zone of inhibition at 12.5 µg/disc [9]: 29 mm | zone of inhibition at 50 µg/disc [10]: 37 mm

O=C(N[C@H](CO)[C@H](O)c1ccc([N+](=O)[O-])cc1)C(Cl)Cl [CHLORAMPHENICOL]
zone of inhibition at 12.5 µg/disc [11]: 30 mm | zone of inhibition at 12.5 µg/disc [12]: 32 mm | zone of inhibition at 12.5 µg/disc [13]: 25 mm | zone of inhibition at 50 µg/disc [14]: 35 mm | zone of inhibition at 50 µg/disc [15]: 42 mm | zone of inhibition at 12.5 µg/disc [16]: 38 mm | zone of inhibition at 100 µg/disc [17]: 40 mm | zone of inhibition at 25 µg/disc [18]: 27 mm | zone of inhibition at 50 µg/disc [19]: 36 mm | zone of inhibition at 100 µg/disc [20]: 32 mm | zone of inhibition at 25 µg/disc [21]: 34 mm | zone of inhibition at 50 µg/disc [22]: 29 mm | MIC [23]: 6.25 µg | zone of inhibition at 25 µg/disc [24]: 40 mm | MIC [25]: 12.5 µg | zone of inhibition at 100 µg/disc [26]: 44 mm | zone of inhibition at 25 µg/disc [27]: 32 mm | MIC [28]: 6.25 µg | zone of inhibition at 100 µg/disc [29]: 37 mm

Cc1cc(SCc2nnc(-c3ccc([N+](=O)[O-])cc3)s2)nc(SCc2nnc(-c3ccc([N+](=O)[O-])cc3)s2)n1
zone of inhibition at 12.5 µg/disc [11]: 16 mm | zone of inhibition at 12.5 µg/disc [12]: 22 mm | MFC [30]: 200 µg | MIC [1]: 50 µg | zone of inhibition at 12.5 µg/disc [13]: 28 mm | zone of inhibition at 50 µg/disc [14]: 20 mm | MBC [31]: 12.5 µg | zone of inhibition at 25 µg/disc [2]: 22 mm | zone of inhibition at 100 µg/disc [3]: 35 mm | zone of inhibition at 50 µg/disc [15]: 35 mm | zone of inhibition at 12.5 µg/disc [16]: 31 mm | MFC [32]: 50 µg | zone of inhibition at 50 µg/disc [4]: 32 mm | zone of inhibition at 25 µg/disc [5]: 29 mm | zone of inhibition at 100 µg/disc [17]: 31 mm | MIC [6]: 12.5 µg | zone of inhibition at 25 µg/disc [18]: 31 mm | MBC [33]: 50 µg | zone of inhibition at 100 µg/disc [7]: 26 mm | zone of inhibition at 12.5 µg/disc [8]: 20 mm | zone of inhibition at 50 µg/disc [19]: 27 mm | zone of inhibition at 100 µg/disc [20]: 35 mm | MBC [34]: 100 | zone of inhibition at 25 µg/disc [21]: 24 mm | zone of inhibition at 50 µg/disc [22]: 33 mm | zone of inhibition at 12.5 µg/disc [9]: 27 mm | zone of inhibition at 50 µg/disc [10]: 24 mm | MIC [23]: 50 µg | zone of inhibition at 25 µg/disc [24]: 33 mm | MIC [25]: 12.5 µg | MBC [35]: 200 µg | zone of inhibition at 100 µg/disc [26]: 38 mm | zone of inhibition at 25 µg/disc [27]: 18 mm | MIC [28]: 6.25 µg | zone of inhibition at 100 µg/disc [29]: 23 mm | Ratio [36]: 2

COc1ccc(-c2nnc(CSc3cc(C)nc(SCc4nnc(-c5ccc(OC)cc5)n4N)n3)n2N)cc1
diameter of the inhibition zone (DIZ) [11]: inactive | diameter of the inhibition zone (DIZ) [12]: inactive | diameter of the inhibition zone (DIZ) [13]: inactive | diameter of the inhibition zone (DIZ) [14]: inactive | diameter of the inhibition zone (DIZ) [2]: inactive | zone of inhibition at 100 µg/disc [3]: 10 mm | diameter of the inhibition zone (DIZ) [15]: inactive | diameter of the inhibition zone (DIZ) [16]: inactive | zone of inhibition at 50 µg/disc [4]: 8 mm | diameter of the inhibition zone (DIZ) [5]: inactive | diameter of the inhibition zone (DIZ) [17]: inactive | diameter of the inhibition zone (DIZ) [18]: inactive | diameter of the inhibition zone (DIZ) [7]: inactive | diameter of the inhibition zone (DIZ) [8]: inactive | diameter of the inhibition zone (DIZ) [19]: inactive | diameter of the inhibition zone (DIZ) [20]: inactive | diameter of the inhibition zone (DIZ) [21]: inactive | diameter of the inhibition zone (DIZ) [22]: inactive | diameter of the inhibition zone (DIZ) [9]: inactive | diameter of the inhibition zone (DIZ) [10]: inactive | diameter of the inhibition zone (DIZ) [24]: inactive | diameter of the inhibition zone (DIZ) [26]: inactive | diameter of the inhibition zone (DIZ) [27]: inactive | diameter of the inhibition zone (DIZ) [29]: inactive

Cc1cc(SCc2nnc(-c3ccccc3)n2N)nc(SCc2nnc(-c3ccccc3)n2N)n1
zone of inhibition at 12.5 µg/disc [11]: 8 mm | zone of inhibition at 12.5 µg/disc [12]: 10 mm | zone of inhibition at 12.5 µg/disc [13]: 14 mm | zone of inhibition at 50 µg/disc [14]: 10 mm | zone of inhibition at 25 µg/disc [2]: 12 mm | zone of inhibition at 100 µg/disc [3]: 24 mm | zone of inhibition at 50 µg/disc [15]: 22 mm | zone of inhibition at 12.5 µg/disc [16]: 17 mm | zone of inhibition at 50 µg/disc [4]: 21 mm | zone of inhibition at 25 µg/disc [5]: 19 mm | zone of inhibition at 100 µg/disc [17]: 17 mm | zone of inhibition at 25 µg/disc [18]: 16 mm | zone of inhibition at 100 µg/disc [7]: 16 mm | zone of inhibition at 12.5 µg/disc [8]: 11 mm | zone of inhibition at 50 µg/disc [19]: 14 mm | zone of inhibition at 100 µg/disc [20]: 23 mm | zone of inhibition at 25 µg/disc [21]: 12 mm | zone of inhibition at 50 µg/disc [22]: 19 mm | zone of inhibition at 12.5 µg/disc [9]: 17 mm | zone of inhibition at 50 µg/disc [10]: 14 mm | zone of inhibition at 25 µg/disc [24]: 19 mm | zone of inhibition at 100 µg/disc [26]: 24 mm | zone of inhibition at 25 µg/disc [27]: 9 mm | zone of inhibition at 100 µg/disc [29]: 12 mm
